# Results as given in patent US11377442B2, “Small molecule agonists and antagonists of NR2F6 activity” (ZANDER THERAPEUTICS, INC., priority 2016, dated 2022).
# Where two headings read alike, the source gives them in different places.
# Experiments:
# Stability in rat plasma = format: in vitro ADME
# PK in mice plasma = format: in vivo; details: for Fabs, %: PO 3.18 mg/kg vs IV 1.12 mg/kg; for Vd: plasma, iv
# Human PBMC = assay: Cytokines release by hPBMC (PMA+ionomycin activated); format: cell-based
# Method: FIGS. 18A and 18B show charts of cytokines release by hPBMC and cytotox for Compound 18. For cytokines release and cytotox on hPBMCs compound was tested at 1.25, 2.5, 5, 10, 25 and 50 uM in duplicates. For cytotox on HEK293, HEK293 pGL4 and HEK293 NR2F6 (full length) compound was tested from 50 uM with dilution step 3.16 in duplicates. Human PBMC were activated by 10 ng/mL PMA+500 ng/mL ionomycin. Data were normalized to controls with (100%) w/o compounds.
# FIGS. 16A and 16B show results of cytokins release by hPBMC and cytotox for Compound C11. For cytokines release and cytotox on hPBMCs, the Compound was tested at 1.25, 2.5, 5, 10, 25 and 50 uM in duplicates. For cytotox on HEK293, HEK293 pGL4 and HEK293 NR2F6 (full length) cmpd was tested from 50 uM with dilution step 3.16 in duplicates.
# The human PBMC were activated by 10 ng/mL PMA+500 ng/mL ionomycin. Data were normalized to controls with (100%) w/o compounds.
# For cytokines release and cytotox on hPBMCs each compound was tested at 1.25, 2.5, 5, 10, 25 and 50 uM in duplicates. Human PBMC were activated by 10 ng/mL PMA+500 ng/mL ionomycin. Data were normalized to controls with (100%) w/o cmpds.
# FIGS. 61A-61E show further results of cytokine release by hPBMC for Compound D136. Each compound was tested at 1.25, 2.5, 5, 10, 25 and 50 uM in duplicates.
# Human PBMC were activated by 10 ng/mL PMA+500 ng/mL ionomycin. Data were normalized to controls with (100%) w/o cmpds.
# [1] = Table 39, PO plasma, 3.18 mg/kg
# [2] = Table 41, IV plasma, 1.12 mg/kg
# [3] = mouse, Table 39, PO plasma, 3.18 mg/kg
# [4] = mouse, Table 41, IV plasma, 1.12 mg/kg
smiles,measurement,setting,value
COCCN[C@H]1CS(=O)(=O)C[C@@H]1S(=O)(=O)c1ccc(Cl)cc1 [Compound D136],stability in rat plasma,Stability in rat plasma,Stable
same,K el,PK in mice plasma; [1],1.2 h⁻¹
same,T_½,PK in mice plasma; [1],34.8 min
same,AUV last,"PK in mice plasma; Table 40, IV plasma, 1.12 mg/kg",124
same,AUV last,"PK in mice plasma; Table 40, PO plasma, 3.18 mg/kg",116
same,"Fabs, %","PK in mice plasma; Table 40, from AUCinf",33.2%
same,"Fabs, %","PK in mice plasma; Table 40, from AUV last",33.0%
same,K el,PK in mice plasma; [2],1.16 h⁻¹
same,T_½,PK in mice plasma; [2],36 min
same,Vd,"PK in mice plasma; mouse, 1.12 mg/kg, Table 41, IV plasma, 1.12 mg/kg, read-out: Vss",2.41 L/kg
same,Vd,"PK in mice plasma; mouse, 1.12 mg/kg, Table 41, IV plasma, 1.12 mg/kg, read-out: Vz",7.74 L/kg
same,AUC(0-inf),PK in mice plasma; [3],117 ng·h/mL
same,AUC(0-t),PK in mice plasma; [3],116 ng·h/mL
same,CL/F,PK in mice plasma; [3],452 mL/min/kg
same,Cmax,PK in mice plasma; [3],89.6 ng/mL
same,MRT inf,PK in mice plasma; [3],64.8 min
same,MRT last,PK in mice plasma; [3],62.4 min
same,Tmax,PK in mice plasma; [3],15 min
same,Vd/F,"PK in mice plasma; mouse, Table 39, PO plasma, 3.18 mg/kg, read-out: Vz/F",22.5 L/kg
same,AUC(0-inf),"PK in mice plasma; mouse, Table 40, IV plasma, 1.12 mg/kg",124 ng·h/mL
same,AUC(0-t),PK in mice plasma; [4],124 ng·h/mL
same,C0,PK in mice plasma; [4],770 ng/mL
same,Cmax,PK in mice plasma; [4],390 ng/mL
same,MRT inf,PK in mice plasma; [4],16.2 min
same,MRT last,PK in mice plasma; [4],15 min
same,Tmax,PK in mice plasma; [4],4.98 min
same,clearance,PK in mice plasma; [4],150 mL/min/kg
same,IL1b release activation by hPBMC,Human PBMC; at high release activation of others cytokines,No IL1b release activation
same,IL-1 inhibition,Human PBMC; human PBMC,Selectively inhibits
same,IL-17α inhibition,Human PBMC; human PBMC,Selectively inhibits
same,TNF-α inhibition,Human PBMC; human PBMC,Selectively inhibits
